Laboratory results reported in patent US20050234046A1 (Kalypsys, Inc., priority 2004, published 2005).

What was measured:
Experiment in all cases: Transient transfection (transactivation) assay in CV-1 cells, GAL4-PPAR chimera, luciferase reporter
Format in all cases: cell-based
PPAR gamma = molecular target: T1, PPAR gamma (Homo sapiens, UniProt P37231)
T1 construct: expressed in transfected cells; host or cells: CV-1 cells
T1 sequence (P37231 238-503 limits assumed): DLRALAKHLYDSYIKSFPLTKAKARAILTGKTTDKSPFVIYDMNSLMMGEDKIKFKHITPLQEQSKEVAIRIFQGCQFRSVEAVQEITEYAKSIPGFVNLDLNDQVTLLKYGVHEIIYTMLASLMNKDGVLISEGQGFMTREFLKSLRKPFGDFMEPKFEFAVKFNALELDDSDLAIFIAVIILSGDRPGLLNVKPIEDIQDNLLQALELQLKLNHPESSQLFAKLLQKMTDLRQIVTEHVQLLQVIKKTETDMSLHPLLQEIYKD

PPAR alpha = molecular target: T2, PPAR alpha (Homo sapiens, UniProt Q07869)
T2 construct: expressed in transfected cells; host or cells: CV-1 cells
T2 sequence (Q07869 239-466 limits assumed): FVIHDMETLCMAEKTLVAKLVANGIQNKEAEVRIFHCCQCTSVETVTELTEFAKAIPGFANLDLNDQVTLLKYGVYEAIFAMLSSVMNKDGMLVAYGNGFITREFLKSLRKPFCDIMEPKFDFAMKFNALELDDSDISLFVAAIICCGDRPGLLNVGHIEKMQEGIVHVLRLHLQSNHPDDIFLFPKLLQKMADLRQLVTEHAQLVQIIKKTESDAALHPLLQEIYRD
Procedure, shortened: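 GAL4 DNA-binding domain fused to PPAR ligand binding domain, co-transfected into CV-1 cells with a luciferase reporter carrying four or five GAL4 sites. Replated cells in phenol-red free DME with 5% delipidated calf serum were treated with compound or 1% DMSO for 20-24 hours; luciferase read for EC50 and efficacy.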

PPAR delta = molecular target: T3, PPAR delta (Homo sapiens, UniProt Q03181)
T3 construct: expressed in transfected cells; host or cells: CV-1 cells
T3 sequence (Q03181 211-439 limits assumed): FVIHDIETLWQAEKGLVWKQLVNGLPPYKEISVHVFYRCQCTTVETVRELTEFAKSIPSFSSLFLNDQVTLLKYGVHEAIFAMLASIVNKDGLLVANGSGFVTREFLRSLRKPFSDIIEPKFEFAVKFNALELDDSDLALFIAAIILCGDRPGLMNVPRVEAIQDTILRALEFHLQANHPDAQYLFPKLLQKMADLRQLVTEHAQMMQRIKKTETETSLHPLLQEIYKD

| SMILES | EC50 (PPAR gamma) [µM] | EC50 (PPAR alpha) [µM] | EC50 (PPAR delta) [µM] |
| --- | --- | --- | --- |
| O=C(O)Cc1cccc(S(=O)(=O)N2CCN(C3CCCCC3)CC2)c1 [Example 130, [3-(4-Cyclohexyl-piperazine-1-sulfonyl)-phenyl]-acetic acid] | 5 to 100 | > 100 | > 100 |
| Cc1ccc(C)c(N2CCN(S(=O)(=O)c3cccc(CC(=O)O)c3)CC2)c1 [Example 131, {3-[4-(2,5-Dimethyl-phenyl)-piperazine-1-sulfonyl]-phenyl}-acetic acid] | 5 to 100 | > 100 | 5 to 100 |
| O=C(O)Cc1cccc(S(=O)(=O)N2CCN(CC3CCCCC3)CC2)c1 [Example 132, [3-(4-Cyclohexylmethyl-piperazine-1-sulfonyl)-phenyl]-acetic acid] | 5 to 100 | > 100 | > 100 |
| O=C(O)Cc1cccc(S(=O)(=O)N2CCN(C(c3ccccc3)c3ccc(Cl)cc3)CC2)c1 (stereo not drawn) [Example 134, (3-{4-[(4-Chloro-phenyl)-phenyl-methyl]-piperazine-1-sulfonyl}-phenyl)-acetic, acid] | 5 to 100 | > 100 | > 100 |
| O=C(O)Cc1cccc(S(=O)(=O)N2CCN(C(=O)c3ccco3)CC2)c1 [Example 136, {3-[4-(Furan-2-carbonyl)-piperazine-1-sulfonyl]-phenyl}-acetic acid] | > 100 | > 100 | > 100 |
| O=C(O)Cc1cccc(S(=O)(=O)N2CCN(C(c3ccc(F)cc3)c3ccc(F)cc3)CC2)c1 [Example 138, (3-{4-[Bis-(4-fluoro-phenyl)-methyl]-piperazine-1-sulfonyl}-phenyl)-acetic acid] | 5 to 100 | > 100 | > 100 |
| O=C(O)Cc1cccc(S(=O)(=O)N2CCN(c3cccc(Cl)c3)CC2)c1 [Example 139, {3-[4-(3-Chloro-phenyl)-piperazine-1-sulfonyl]-phenyl}-acetic acid] | 5 to 100 | > 100 | 5 to 100 |

The remaining lines, values ahead:

| EC50 (PPAR gamma) [µM] | EC50 (PPAR alpha) [µM] | EC50 (PPAR delta) [µM] | SMILES |
| --- | --- | --- | --- |
| 5 to 100 | 5 to 100 | 5 to 100 | O=C(O)Cc1cccc(S(=O)(=O)N2CCN(c3ccc(C(F)(F)F)cc3[N+](=O)[O-])CC2)c1 [Example 128, {3-[4-(2-Nitro-4-trifluoromethyl-phenyl)-piperazine-1-sulfonyl]-phenyl}-acetic acid] |
| > 100 | > 100 | > 100 | COc1ccccc1N1CCN(S(=O)(=O)c2cccc(CC(=O)O)c2)CC1 [Example 129, {3-[4-(2-Methoxy-phenyl)-piperazine-1-sulfonyl]-phenyl}-acetic acid] |
| > 100 | > 100 | > 100 | N#Cc1ccccc1N1CCN(S(=O)(=O)c2cccc(CC(=O)O)c2)CC1 [Example 133, {3-[4-(2-Cyano-phenyl)-piperazine-1-sulfonyl]-phenyl}-acetic acid] |
| > 100 | > 100 | 5 to 100 | O=C(O)Cc1cccc(S(=O)(=O)N2CCN(c3ccc([N+](=O)[O-])cc3)CC2)c1 [Example 135, {3-[4-(4-Nitro-phenyl)-piperazine-1-sulfonyl]-phenyl}-acetic acid] |
| > 100 | > 100 | > 100 | COc1cccc(N2CCN(S(=O)(=O)c3cccc(CC(=O)O)c3)CC2)c1 [Example 137, {3-[4-(3-Methoxy-phenyl)-piperazine-1-sulfonyl]-phenyl}-acetic acid] |
| > 100 | > 100 | > 100 | O=C(O)Cc1cccc(S(=O)(=O)N2CCN(c3ccccc3Cl)CC2)c1 [Example 140, {3-[4-(2-Chloro-phenyl)-piperazine-1-sulfonyl]-phenyl}-acetic acid] |
| > 100 | > 100 | 5 to 100 | O=C(O)Cc1cccc(S(=O)(=O)N2CCN(c3ccccc3F)CC2)c1 [Example 141, {3-[4-(2-Fluoro-phenyl)-piperazine-1-sulfonyl]-phenyl}-acetic acid] |
